In assay [1] the test system is mice receiving a controlled cortical impact traumatic brain injury (TBI). Put plainly: Morris water maze after controlled cortical impact TBI. Type of assay: in vivo, mouse. To be noted: treated post-TBI daily by oral gavage, 2% in SSV, vs SSV controls. On the procedure:
Trehalose (Sigma) has a generous safety profile in rodents and humans has been posted as “Generally Regarded as Safe” (GRAS) for human consumption by the U.S. Federal Drug Administration (FDA) in October 2000, is used as a food additive, and is also an excipient in many pharmaceuticals, making trehalose a safe, natural and pharmaceutically accepted product. In this study, it was supplied as a 2% w/v in standard suspension vehicle (SSV) solution via oral gavage at a dose of 0.1 ml to 10 g body weight. SSV solution was purchased from Sigma and contains 0.9% sodium chloride (NaCl), 0.5% Sodium carboxymethylcellulose (Na-CMC), 0.5% Benzyl alcohol, 0.4%, Tween 80 (polyoxyethylenesorbitan monooleate).
(§1) Surgical procedures and controlled cortical impact (CCI) have been previously described (see Portbury et al., 2015, Metallomics. doi:10.1039/c5mt00234f). Briefly, 3 month-old male C57B16 mice were anesthetized via intraperitoneal injection of 100 mg/kg ketamine and 10 mg/kg xylazine. A 10 mm mid-line incision was made over the skull, and the skin and fascia were reflected to make a 4 mm craniotomy on the central aspect of the right parietal bone using a motorized drill. Upon animal positioning in a stereotaxic frame a CCI injury was subsequently delivered (3 m/s velocity with a 1.5 mm penetration depth).
(§2) Three groups of animals were subjected to TBI as separate experiments. The first group of animals were treated daily with 2% trehalose in SSV solution at 0.1 ml per 10 g body weight via oral gavage for a period of 31 days or SSV solution following the TBI. […] The second groups of animals underwent an identical dosing procedure but were treated with either SSV or maltose as a disaccharide control for trehalose. […] A further group of animals was pre-treated with trehalose prior to TBI. These pre-treated mice received a daily treatment of 2% trehalose in SSV solution at 0.1 ml per 10 g body weight via oral gavage for 7 days prior to TBI. Following TBI, these animals received SSV solution only for the remaining duration of the experiment.
(§3) The Morris Water Maze (MWM) was used to assess the effect of trehalose on spatial learning and memory function following TBI. The pre-training acclimation day of the water maze was performed on day 23 of dosing, followed by six days of place discrimination training of four 90 second trials per day, conducted on days 24-29 of dosing. The probe trial was performed 24 hours after training on dosing day 30 to assess retention of the task. Data was analysed using the Ethovision automated tracking system. Animals were culled on day 31. Both experimental groups adhered to the same time lines of behavioral assessment. The open field assessment was performed on day 19 of dosing and the Y-maze assessment was performed on day 21 of dosing.
(§4) For LA-ICPMS samples, statistical analysis was carried out in Prism 7 (Graph-Pad) software. Analysis was carried out with a two-tailed t test with the level of significance set at p=0.05. For multiple comparisons two-way ANOVA was used to identify significant differences between ipsilateral and contralateral ROI's. For western blot analysis, images were produced using Image Studio Lite (version 4.0.21, LI-COR Biosciences) and subsequent statistical analysis was carried out in Prism 7 (Graph-Pad). All behavioral analysis was performed using Prism 7 (Graph-Pad).

Assay [2] has the same test system. Put plainly: Y-maze assessment after TBI. Type of assay: in vivo, mouse. The following applies: treated post-TBI, dosing day 21; vs SSV. As for the experimental part:
as §1, §2, §3, §4

“Also recorded” adds a separate entry of the source.

Here are results for one molecule from patent US11602538B2, “Prophylaxis and treatment of cognitive dysfunction and decline” (The Florey Institute of Neuroscience and Mental Health, priority 2017, dated 2023).

Consider `OC[C@H]1O[C@H](O[C@H]2[C@H](O)[C@@H](O)C(O)O[C@@H]2CO)[C@H](O)[C@@H](O)[C@@H]1O` (mixture of isomers) [maltose], for which, in assay [1] (0.1 ml per 10 g, training on dosing days 24-29), the “escape latency / acquisition of the task (learning component), Morris water maze” value is “no such improvement; also recorded: no significant differences”. Further, in assay [1] (dosing day 30), the “probe day 24-hour task retention (recall component), Morris water maze” value is “no such improvement; also recorded: no significant differences”. In addition, in assay [2], the “five-minute frequency of visits into the novel arm, Y-maze” value is “no significant preference for the novel arm; also recorded: no significant improvement”; the “one-minute duration of time in the novel arm, Y-maze” value is reported as “no significant improvement”; the “one-minute frequency of visits into the novel arm, Y-maze” value was “no significant preference for the novel arm; also recorded: no significant improvement”.
